Measurements taken from PMC10759609, “A novel PDPN antagonist peptide CY12-RP2 inhibits melanoma growth via Wnt/β-catenin and modulates the immune cells” (Journal of Experimental & Clinical Cancer Research : CR, 2024).
Peptide text beside a SMILES is read from it.

Columns and labels:
PDPN in A375 cells = experiment: Immunofluorescence binding/co-localization with PDPN, A375; assay type: cell-based; conditions: 5 μM, 10 h, 37 ℃
Experimental: Immunofluorescence analysis was used for antigen localization and quantification. For PDPN immunofluorescence staining, melanoma cells (A375, A875) were seeded in coverslips, cultured for 24 h, and fixed using 4% paraformaldehyde for 15 min at room temperature (RT). The cells were then permeabilized with 0.2% Triton X-100 in PBS for 10 min. Cells were blocked using 1% bovine serum albumin (BSA) in PBS for 30 min at RT, and incubated with the primary antibody overnight at 4 ℃. Afterwards, cells were washed three times with PBS containing 0.01% Triton X-100 for 5 min, and incubated with Alexa Fluor 568–conjugated secondary antibodies at RT for 1 h. Lastly, the nuclei were dyed with 4’,6-diamidino-2-phenylindole (DAPI) for 5 min at RT, and the slides were imaged using a NIKON laser scanning confocal microscope. To further verify the specificity binding ability of CY12-RP2 with PDPN, immunofluorescence was detected for analysis in melanoma cells. Briefly, A375 or A875 cells were incubated with CY12-RP2 at a concentration of 5 μM for 10 h at 37 ℃, and then washed with DMEM to remove the unbound peptide. The anti-PDPN primary antibody was then incubated for 4 h at RT. Further experimental procedures were performed as described above. […]

A875 cells [1] = experiment: Colony formation, A875; assay type: cell-based
A875 cells [2] = experiment: Wound healing (migration), A875; assay type: cell-based; conditions: wound healing, 0, 5, 25 μM, 24 h or 48 h
Experimental: A375 GFP, A875 GFP, A375 PDPN^−/−, and A875 PDPN^+/+ cells were all seeded in 12-well plates at a density of 5 × 10^5 cells/well. When the cells reached 100% confluence the next day, the straight wound was scraped in each cultured well with a 20 µL pipette tip. Then the cells were washed repeatedly with complete DMEM to remove the cellular debris, and the medium was changed to a low serum medium containing 0.05% FBS. The scratch-treated cells were subsequently cultured for an additional indicated time and imaged at 0 h, 12 h, 24 h and 48 h. Quantification of wound closure was accomplished by measuring the distance between the phase contrast images’ anterior edges of the contralateral surfaces using ImageJ software. As for peptide (CY12-RP2) function experiments, images of phase contrast for A375 GFP and A875 GFP cells were captured at 0 h before peptide administration. The cells were then treated with CY12-RP2 (0 μM, 5 μM, 25 μM) for 24 h or 48 h, and then images were acquired again. Handling of the experimental results were carried out as previously described.

[3] = test system: Wnt/β-catenin signaling pathway; experiment: Western blot, EMT and Wnt/β-catenin pathway, melanoma cells; assay type: cell-based; conditions: melanoma cells treated with peptide
Experimental: Melanoma cells were cultured in a 60 mm dish with a complete medium and various peptide concentrations (0 μM, 5 μM, 25 μM). Protein was extracted after cells were cultured or treated for 48 h using protein lysis buffer, separated using a 10% or 15% Bis–Tris PAGE gel (Epizyme Biomedical Technology, Shanghai, China), and transferred onto a PVDF membrane (Thermo Fisher Scientific) according to standard techniques. The Western blots were imaged using Bio-rad Chemidoc MP and quantified using ImageJ software (NIH).
Fig. S4: The inhibition of cells metastasis and invasion by CY12-RP2 can be […]
(A, B) The inhibition of CY12-RP2 on the migration capacity of melanoma cell lines was reversed by SKL2001 (A). Statistical analysis was performed to determine the migrated distance (B). The power field scale bar, 100 μm. (C, D) Effect of CY12-RP2 on the invasive ability of melanoma cell lines were reversed by SKL2001 (C). […]
(A) TUNEL analysis of apoptosis was conducted on orthotopic xenografts tumor sections using fluorescence staining. […] (B) Fluorescence staining of Ki67 was carried out on orthotopic xenograft tumor sections.
The power field scale bar, 100 μm. (C) Serum His-CY12-RP2 levels of the orthotopic xenografts mice treated by various dosage of CY12-RP2 were measured by His-ELISA kit. […]
kit. (E) Serum ALT, AST, TG, and γ-GT levels of the orthotopic xenografts model were measured by ELISA. […]

[4] = test system: B16F10-Luc lung metastasis; assay type: in vivo, BALB/c mice; conditions: 25 and 100 mg/kg i.v. every two days, 15 days
Experimental: For pulmonary metastasis assays, 6- to 8-week-old female BALB/c mice were administered with 5 × 10^5 B16F10-Luc cells via tail vein to establish an experimental pulmonary metastasis model of melanoma. CY12-RP2 was administered to the mice intravenously at high and low doses (25 mg/kg and 100 mg/kg) every two days, and the mice were sacrificed after 15 days of treatment. Pulmonary metastases were evaluated using bioluminescence imaging on the 2nd, 5th, 10th, 15th and 20th day after B16F10-Luc cells injection. Subsequently, the BALB/c mice were sacrificed, and the organs including the heart, liver, spleen, lung, and kidney were collected and imaged for evaluation of micrometastases. The xenografts and organs were kept in a 4% paraformaldehyde solution for subsequent histological assays.

Which “fluorescence and co-localization with PDPN” value (PDPN in A375 cells) does the source give for `CC(C)C[C@H](NC(=O)[C@H](Cc1ccc(O)cc1)NC(=O)[C@@H](N)[C@@H](C)O)C(=O)N[C@@H](CS)C(=O)N[C@H](C(=O)N[C@@H](C)C(=O)N[C@@H](CS)C(=O)N[C@@H](CC(=O)O)C(=O)N[C@@H](Cc1ccc(O)cc1)C(=O)N[C@H](C(=O)N[C@@H](Cc1c[nH]cn1)C(=O)N[C@@H](Cc1c[nH]cn1)C(=O)O)[C@@H](C)O)[C@@H](C)O` [CY12-RP2] (H-TYLCTACDYTHH-OH; N-terminus and C-terminus assumed) here?
Its value is “strong fluorescence and co-localization”.

What about the colony formation (A875 cells [1]) of the same molecule?
The colony formation was “only having inhibitory effects on A875 cells at high concentrations”.

And the migration (A875 cells [2])?
The migration was “inhibited migration at the corresponding time both in A375 and A875 cells”.

What about the Wnt/β-catenin pathway [3] of the same molecule?
The Wnt/β-catenin pathway was “could inhibit the Wnt/β-catenin pathway”.

And the pulmonary metastases ([4]; bioluminescence, vs control)?
The pulmonary metastases was “significantly fewer pulmonary metastases”.

And the “size of nodules and frequency of metastases in the lungs” value ([4]; ex vivo organ bioluminescence)?
Its value is “significant reduction”.

What about the “metastatic nodules in the lung” value ([4]; representative nodule images) of the same molecule?
The value was “significantly reduced”.
